From patent publication US7294511B2, “Methods for delivering nucleic acid molecules into cells and assessment thereof” (Chromos Molecular Systems, Inc., priority 2001, dated 2007)

Tests used:
Hep-G2 cells = assay: Ultrasound mediated transfection of Hep-G2 cells with GFP chromosomes and Saint-2; format: cell-based
Description: (§1) Alternatively, the medium was removed from the cells, and the cells were washed twice with HBSS. 500 μl HBSS/lipid solution at 37° C. was added to each well. The HBSS/lipid solution was prepared by adding 1 μl ethanolic lipid solution (prepared as described above) to 500 μl HBSS under vigorous vortexing. The plates were then sealed with parafilm tape and shaken gently at room temperature for 30 min. After incubation, ultrasound was applied at an output energy of 0.5 Watt/cm^2 for 60 sec through the bottom of the plate to the cells. The ultrasound was mediated by an ultrasound gel (Aquasonic 100, Parker, N.J.) between transducer and plate. The ultrasound was applied with an ImaRx Sonoporator 100. Immediately after applying ultrasound one GFP chromosome per seeded cell (2×10^5-5×10^5) (prepared in Example 1) was added. The plate was then sealed again and shaken gently for 1 h at room temperature. After the incubation 1 ml medium (CHO—S-SFM 2 with 10% Fetal Calf Serum, 10000 μg/ml Penicillin and 10000 μg/ml Streptomycin Gibco BRL, Paisley, UK) was added to each well and the cells were incubated for 24 h at 37° C. The cells were then washed with medium, 1 ml medium was added, and the cells were incubated at 37° for another 24 h. Detection of expressed genes was then assayed by microscopy or detection of the transferred chromosome by FISH analysis. […]

CHO-KI cells = assay: Ultrasound mediated transfection of CHO-KI cells with GFP chromosomes and Saint-2; format: cell-based
Description: Vesicles were prepared at a lipid concentration of 700 nmol/ml lipid (cationic lipid/DOPE 1:1) as follows. In a glass tube (10 ml) 350 nmol cationic lipid (SAINT-2) was mixed with 350 nmol dioleoylphosphatidylethanolamine (DOPE), both solubilized in an organic solvent (Chloroform, Methanol or Chloroform/Methanol 1:1, v/v). dioleoylphosphatidylethanolamine (DOPE; Avanti Polar Lipids, Alabaster, Ala.) forms inverse hexagonal phases in a membrane and weakens the membrane. Other effectors that may be used are cis-unsaturated phosphatidylethanolamines, cis-unsaturated fatty acids, and cholesterol.
The solvent was evaporated under a stream of nitrogen (15 min/250 μl solvent at room temperature). The remaining solvent was removed totally by drying the lipid for 15 min in an desiccator under high vacuum from a vacuum pump. To the dried mixture was added 1 ml ultrapure water. This was vortexed vigorously for about 5 min. The resulting solution was sonicated in an ultrasonication bath (Laboratory Supplies Inc. N.Y.) until a clear solution was obtained. The resulting suspension contained a population of unilamellar vesicles with a size distribution between 50 to 100 nm.
CHO-KI cells were grown at 37° C., 5% CO2, in CHO—S-SFM 2 Medium, (Gibco BRL, Paisley, UK). Between 2×10^5 and 5×10^5 cells were plated onto sterile glass slides in a 12 well plate 24 h before usage.
Transfection of the cells was performed as follows. The medium was removed from the cells, and the cells were washed twice with HBSS (Hanks balanced salt solution without Phenol Red (Gibco BRL, UK)) at 37° C. Then 500 μl HBSS at 37° C. was added per well, followed by 10 μl of the freshly prepared vesicle solution (prepared in Example 2) to yield a final concentration of 23.3 nmol/ml.
as §1, with “temperature.” for “temperature. After the incubation 1 ml medium (CHO—S-SFM 2 with 10% Fetal Calf Serum, 10000 μg/ml Penicillin and 10000 μg/ml Streptomycin Gibco BRL, Paisley, UK) was added to each well and the cells were incubated for 24 h at 37° C. The cells were then washed with medium, 1 ml medium was added, and the cells were incubated at 37° for another 24 h. Detection of expressed genes was then assayed by microscopy or detection of the transferred chromosome by FISH analysis.”

A9 cells = assay: Ultrasound mediated transfection of A9 cells with GFP chromosomes and Saint-2; format: cell-based, murine
Description: as §1

cells remained on the glass slide after transfection (Hep-G2 cells; Hep-G2, Saint-2/DOPE, ultrasound 0.5 Watt/cm^2 60 sec): 30%
cells remained on the glass slide after transfection (CHO-KI cells; Saint-2/DOPE, ultrasound 0.5 Watt/cm^2 60 sec, visual inspection): 30%
cells remained on the glass after transfection (A9 cells; A9, Saint-2/DOPE, ultrasound 0.5 Watt/cm^2 60 sec): 30%
Compound: CCCCCCCCC=CCCCCCCCCC(CCCCCCCCC=CCCCCCCCC)c1cc[n+](C)cc1.[Cl-] (centres unmarked) [Saint-2, 1-methyl-4-(1-octadec-9-enyl-nonadec-10-enylenyl)pyridinium chloride]
remaining cells positive for green fluorescent protein expression (Hep-G2 cells; Hep-G2, of the cells remaining on the slide): 80%
GFP positive cells as % of original population (CHO-KI cells; after 48 hours): 3%
remaining cells positive for green fluorescent protein expression (CHO-KI cells; after 48 hours, of the cells remaining on the slide): 10%
cells containing an intact artificial chromosome (FISH) (CHO-KI cells; after culturing for two weeks): 1.4%
remaining cells positive for green fluorescent protein expression (A9 cells; A9, of the cells remaining on the glass): 50%
